Results taken from the supplement of paper PMC10307832.

Tests used:
Assay in all cases: relative viability (nuclei count vs DMSO), 5 days (fraction); higher = more cells survive
[1] = compound: Cc1ccc2nc(NCCN)c3ncc(C)n3c2c1 + C[C@@H](Oc1cc(-c2cnn(C3CCNCC3)c2)cnc1N)c1c(Cl)ccc(F)c1Cl [Crizotinib] (partner 1 µM)
Method in brief: (§1)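 Relative viability divides the nuclei count in treated wells by that in vehicle wells. Lung cancer cell lines were seeded in 1536-well plates, dosed by pin tool the next day, and fixed and stained after 5 days in one step with final 0.05% Triton X-100, 1% formaldehyde and 1 ug/ml Hoechst. Dosing was a single drug or a fixed anchor-drug dose plus five library-drug doses (not always all listed) in √10 steps, and values are medians of duplicate plates imaged at 4×.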

[2] = compound: O=C(/C=C/c1ccccc1)NC(NC(=S)Nc1cccc2cccnc12)C(Cl)(Cl)Cl [Salubrinal] + O=C(CCCCCCC(=O)Nc1ccccc1)NO [Vorinostat] (partner 1 µM)
Method in brief: as §1

[3] = compound: Cc1ccc2nc(NCCN)c3ncc(C)n3c2c1 + Nc1ncn([C@H]2C[C@H](O)[C@@H](CO)O2)c(=O)n1 [Decitabine] (partner 2 µM)
Method in brief: as §1

[4] = compound: O=C(/C=C/c1ccccc1)NC(NC(=S)Nc1cccc2cccnc12)C(Cl)(Cl)Cl [Salubrinal] + Cc1cc(Nc2cc(N3CCN(C)CC3)nc(Sc3ccc(NC(=O)C4CC4)cc3)n2)n[nH]1 [Tozasertib] (partner 0.1 µM)
Method in brief: as §1

Cell Line	relative viability ([1]; first compound 0.04 µM)	relative viability ([1]; first compound 0.1265 µM)	relative viability ([1]; first compound 0.4 µM)	relative viability ([1]; first compound 1.265 µM)	relative viability ([1]; first compound 4 µM)	relative viability ([2]; first compound 0.08 µM)	relative viability ([2]; first compound 0.253 µM)	relative viability ([2]; first compound 0.8 µM)	relative viability ([2]; first compound 2.53 µM)	relative viability ([2]; first compound 8 µM)	relative viability ([3]; first compound 0.04 µM)	relative viability ([3]; first compound 0.1265 µM)	relative viability ([3]; first compound 0.4 µM)	relative viability ([3]; first compound 1.265 µM)	relative viability ([3]; first compound 4 µM)	relative viability ([4]; first compound 0.253 µM)	relative viability ([4]; first compound 0.8 µM)	relative viability ([4]; first compound 2.53 µM)	relative viability ([4]; first compound 8 µM)	relative viability ([4]; first compound 0.08 µM)
BEN	0.944	0.59	0.872	0.798	0.842	0.52	0.543	0.645	0.507	0.571	0.623	0.737	0.686	0.885	0.685	0.689	0.718	0.479	0.471	–
NCI-H1666	0.998	1.01	0.874	0.852	0.907	0.99	0.886	0.99	1.16	1.11	0.753	0.719	0.692	0.792	0.647	0.587	0.611	0.553	0.608	0.646
LC-2-ad	0.467	0.448	0.44	0.406	0.476	0.735	0.644	0.692	0.651	0.665	0.728	0.728	0.705	0.712	0.768	0.449	0.478	0.408	0.354	0.45
SK-LU-1	0.926	0.937	1.01	0.852	0.83	0.754	0.668	0.996	0.779	0.664	0.672	0.656	0.744	0.665	0.69	0.326	0.344	0.287	0.286	0.334
ChaGo-K-1	1.17	1.03	1.15	0.989	0.922	0.834	0.683	0.901	0.814	0.77	0.542	0.546	0.511	0.545	0.512	0.264	0.231	0.216	0.216	0.257
COR-L 105	0.797	0.721	0.887	0.704	0.422	1.08	0.816	0.843	0.797	0.747	0.758	0.738	0.722	0.673	0.632	0.37	0.312	0.335	0.328	0.665
NCI-H1975	1.05	0.965	0.957	0.771	0.757	0.742	0.616	0.703	0.696	0.676	0.384	0.394	0.405	0.455	0.403	0.621	0.785	0.517	0.186	0.989
NCI-H1993	0.822	0.896	0.811	0.812	0.826	0.939	0.592	0.805	–	0.867	0.731	0.468	0.632	0.606	0.583	0.577	0.597	0.674	0.649	0.653
RERF-LC-KJ	0.829	0.791	0.777	0.722	0.789	0.784	0.642	0.745	0.673	0.721	0.63	0.709	0.684	0.765	0.616	0.433	0.513	0.435	0.285	0.584
NCI-H23	0.731	0.549	0.554	0.437	0.447	0.784	0.614	0.644	0.486	0.69	0.312	0.356	0.321	0.328	0.34	0.393	0.678	0.305	0.296	0.349
HCC-366	0.642	0.553	0.582	0.508	0.502	0.494	–	0.443	0.364	0.345	0.349	0.362	0.302	0.357	0.34	0.0941	0.118	0.0829	0.0635	0.106
EMC-BAC-2	0.761	0.728	0.735	0.733	0.775	0.388	0.477	0.798	0.514	0.494	0.973	1.01	0.989	1.06	0.966	0.289	0.313	0.255	0.261	0.239
NCI-H2405	0.951	0.827	0.853	0.838	0.791	0.998	1.06	1.22	1.04	0.99	0.706	0.713	0.747	0.728	0.741	0.748	0.801	0.713	0.696	0.722
NCI-H1944	1.05	1.18	1.09	1.19	1.09	0.69	0.54	0.662	0.504	0.645	0.377	0.428	0.436	0.418	0.422	0.269	0.276	0.229	0.278	0.269
NCI-H358	0.613	0.594	0.691	0.583	0.487	0.804	0.659	0.757	0.641	0.661	0.225	0.216	0.239	0.257	0.206	0.12	0.111	0.108	0.0983	0.107
EPLC-272H	0.948	0.846	1.06	0.948	0.91	0.464	–	0.539	0.427	0.336	0.386	0.386	0.395	0.341	0.327	0.249	0.258	0.243	0.242	0.426
NCI-H1915	0.823	–	0.816	0.868	0.914	0.516	–	0.614	0.521	0.471	0.265	0.248	0.267	0.253	0.238	0.291	0.337	0.387	0.432	0.484
